From PubChem BioAssay (NCI)
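Protocol summary: plate cells (96-well), add compound at 5 concentrations, incubate 48 h, interpolate endpoints linearly. TGI is the concentration that stops growth completely.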

Legend:
Experiment in all cases: NCI anticancer screen, dose series, 48 h
786-0 renal = tested on: 786-0 renal
A549 NSCLC = tested on: A549 NSCLC
ACHN renal = tested on: ACHN renal
CAKI-1 renal = tested on: CAKI-1 renal
CCRF-CEM leukemia = tested on: CCRF-CEM leukemia
COLO 205 colon = tested on: COLO 205 colon
DLD-1 colon = tested on: DLD-1 colon
DMS 114 small cell lung = tested on: DMS 114 small cell lung
DMS 273 small cell lung = tested on: DMS 273 small cell lung
EKVX NSCLC = tested on: EKVX NSCLC
HCT-116 colon = tested on: HCT-116 colon
HL-60(TB) leukemia = tested on: HL-60(TB) leukemia
HOP-18 NSCLC = tested on: HOP-18 NSCLC
HOP-62 NSCLC = tested on: HOP-62 NSCLC
HOP-92 NSCLC = tested on: HOP-92 NSCLC
HT29 colon = tested on: HT29 colon
IGROV1 ovarian = tested on: IGROV1 ovarian
K-562 leukemia = tested on: K-562 leukemia
KM12 colon = tested on: KM12 colon
KM20L2 colon = tested on: KM20L2 colon
LOX IMVI melanoma = tested on: LOX IMVI melanoma
LXFL 529 NSCLC = tested on: LXFL 529 NSCLC
M14 melanoma = tested on: M14 melanoma
M19-MEL melanoma = tested on: M19-MEL melanoma
MALME-3M melanoma = tested on: MALME-3M melanoma
MOLT-4 leukemia = tested on: MOLT-4 leukemia
NCI-H226 lung = tested on: NCI-H226 lung
NCI-H23 lung = tested on: NCI-H23 lung
NCI-H460 lung = tested on: NCI-H460 lung
NCI-H522 lung = tested on: NCI-H522 lung
OVCAR-3 ovarian = tested on: OVCAR-3 ovarian
OVCAR-4 ovarian = tested on: OVCAR-4 ovarian
OVCAR-5 ovarian = tested on: OVCAR-5 ovarian
OVCAR-8 ovarian = tested on: OVCAR-8 ovarian
RPMI-8226 leukemia = tested on: RPMI-8226 leukemia
RXF 393 renal = tested on: RXF 393 renal
SF-268 CNS = tested on: SF-268 CNS
SF-295 CNS = tested on: SF-295 CNS
SF-539 CNS = tested on: SF-539 CNS
SK-MEL-2 melanoma = tested on: SK-MEL-2 melanoma
SK-MEL-28 melanoma = tested on: SK-MEL-28 melanoma
SK-MEL-5 melanoma = tested on: SK-MEL-5 melanoma
SK-OV-3 ovarian = tested on: SK-OV-3 ovarian
SN12C renal = tested on: SN12C renal
SNB-19 CNS = tested on: SNB-19 CNS
SNB-75 CNS = tested on: SNB-75 CNS
SNB-78 CNS = tested on: SNB-78 CNS
SR leukemia = tested on: SR leukemia
SW-620 colon = tested on: SW-620 colon
TK-10 renal = tested on: TK-10 renal
U251 CNS = tested on: U251 CNS
UACC-257 melanoma = tested on: UACC-257 melanoma
UACC-62 melanoma = tested on: UACC-62 melanoma
UO-31 renal = tested on: UO-31 renal
XF 498 CNS = tested on: XF 498 CNS

Measured: TGI

CC(=O)n1nnc2ccc([N+](=O)[O-])cc21
> 100 µM: 786-0 renal | A549 NSCLC | ACHN renal | CAKI-1 renal | CCRF-CEM leukemia | COLO 205 colon | DLD-1 colon | DMS 114 small cell lung | DMS 273 small cell lung | EKVX NSCLC | HCT-116 colon | HL-60(TB) leukemia | HOP-18 NSCLC | HOP-62 NSCLC | HOP-92 NSCLC | HT29 colon | IGROV1 ovarian | K-562 leukemia | KM12 colon | KM20L2 colon | LOX IMVI melanoma | LXFL 529 NSCLC | M14 melanoma | M19-MEL melanoma | MALME-3M melanoma | MOLT-4 leukemia | NCI-H226 lung | NCI-H23 lung | NCI-H460 lung | NCI-H522 lung | OVCAR-3 ovarian | OVCAR-4 ovarian | OVCAR-5 ovarian | OVCAR-8 ovarian | RPMI-8226 leukemia | RXF 393 renal | SF-268 CNS | SF-295 CNS | SF-539 CNS | SK-MEL-2 melanoma | SK-MEL-28 melanoma | SK-MEL-5 melanoma | SK-OV-3 ovarian | SN12C renal | SNB-19 CNS | SNB-75 CNS | SNB-78 CNS | SR leukemia | SW-620 colon | TK-10 renal | U251 CNS | UACC-257 melanoma | UACC-62 melanoma | UO-31 renal | XF 498 CNS
